Data from patent US20220194960A1, “WEE1 INHIBITOR AND PREPARATION AND USE THEREOF” (SHOUYAO HOLDINGS (BEIJING) CO., LTD., priority 2019, published 2022).

Tests used:
WEE1 kinase = molecular target: T1, WEE1 kinase (Homo sapiens, UniProt P30291); experiment: WEE1 kinase binding assay (LanthaScreen EU); details: WEE1 kinase 20 nM, Kinase Tracer 178 100 nM, 23° C. for 60 min, read-out: WEEI (IC50)
T1 construct: purchased Carna bioscience
Protocol: 1. Assay for WEE1 Kinase Inhibitory Activity (IC50) on Compounds
The WEE1 kinase binding assay was established and optimized with LanthaScreen EU for the determination of the activity of compounds. 10 mM compounds were subjected to ten-fold gradient dilution in 100% DMSO (6 concentrations in total), 5 μL of diluent from each concentration was added to 45 μL of reaction buffer (50 mM HEPES (4-hydroxyethylpiperazine ethanesulfonic acid), pH 7.5, 10 mM MgCl2 (magnesium chloride), 1 mM EGTA (ethylene glycol diethyl ether diamine tetraacetic acid), 0.01% Brij-35 (polyoxyethylene lauryl ether)) for blending. On this basis, 2 μL diluent from each concentration was added to 48 μL of reaction buffer for blending as a 4*compound (final concentrations of 1000, 100, 10, 1, 0.1, 0 nM) for later use. Reaction buffer was used to formulate 4*WEE1 kinase (purchased from Carna bioscience, a final concentration of 20 nM), 4*LanthaScreen EU-anti-GST Antibody (purchased from Invitrogen, PV5594, a fuel concentration of 2 nM), and 4*Kinase Tracer 178 (purchased from Invitrogen, PV5593, a final concentration of 100 nM). 2.5 μL of 4*compound was added to a 384-well plate (OptiPlate-384, purchased from PerkinElmer), followed by adding 2.5 μL of 4*WEE1 kinase, standing for 5 min at room temperature. Then 2.5 μL of 4*LanthaScreen EU-anti-GST Antibody was added followed by 2.5 μL of 4*Kinase Tracer 178. The reaction was started by centrifugation (a total reaction volume of 10 μL). The 384-well plate was wrapped with tin foil paper and placed in an incubator at 23° C. for 60 min. Fluorescence values (excitation at 320 nm, detecting emitted light at 665 nm and 615 nm, and a ratio of the two as enzyme activity) were read on Envision (purchased from PerkinElmer). The enzyme activity of each compound was measured at 6 concentrations, and the IC50 value of the compound was calculated using GraFit6.0 software (Erithacus Software).
The aforementioned “*” refers to multiplying, representing multiples.

[1] = system: Human non-small cell lung cancer cells NCI-H1299; experiment: NCI-H1299 cell proliferation inhibition (CellTiter-Glo); assay type: cell-based; details: cultured 3 days, table head NCI-H1975, method NCI-H1299
Protocol: 2. Determination of Cell Proliferation Activity of Compounds:
NCI-H1299 cell proliferation inhibition screening method was established using CellTiter-fib detection reagent from Promega.
Human non-small cell lung cancer cells NCI-H1299 were cultured in 25 cm^2 or 75 cm^2 plastic tissue culture flasks (Corning) filled with DMEM (Gibco) medium supplemented with 10% fetal bovine serum (Hyclone) under 37° C., 95% air, and 5% CO2, and subcultured 2-3 times a week.
Cells were seeded at 1000 cells/well in a 96-well cell culture plate (Corning), 195 μL/well, and cultured under 37° C., 95% air, and 5% CO2. The next day test compound was added: 10 mM compounds (dissolved in DMSO) were subjected to 3-fold gradient dilution in DMSO, 2 μL of diluent from each concentration was added to 48 μL of serum-fret medium, and finally 5 μL of the diluted compound was added to the plate seeded with cells. The final concentration of DMSO in the cell culture was 0.1% and the foul concentration of the test compound was 0.3 nM-10 μM. The cells were cultured at 37° C. for 3 days.

T1 sequence (P30291 whole entry): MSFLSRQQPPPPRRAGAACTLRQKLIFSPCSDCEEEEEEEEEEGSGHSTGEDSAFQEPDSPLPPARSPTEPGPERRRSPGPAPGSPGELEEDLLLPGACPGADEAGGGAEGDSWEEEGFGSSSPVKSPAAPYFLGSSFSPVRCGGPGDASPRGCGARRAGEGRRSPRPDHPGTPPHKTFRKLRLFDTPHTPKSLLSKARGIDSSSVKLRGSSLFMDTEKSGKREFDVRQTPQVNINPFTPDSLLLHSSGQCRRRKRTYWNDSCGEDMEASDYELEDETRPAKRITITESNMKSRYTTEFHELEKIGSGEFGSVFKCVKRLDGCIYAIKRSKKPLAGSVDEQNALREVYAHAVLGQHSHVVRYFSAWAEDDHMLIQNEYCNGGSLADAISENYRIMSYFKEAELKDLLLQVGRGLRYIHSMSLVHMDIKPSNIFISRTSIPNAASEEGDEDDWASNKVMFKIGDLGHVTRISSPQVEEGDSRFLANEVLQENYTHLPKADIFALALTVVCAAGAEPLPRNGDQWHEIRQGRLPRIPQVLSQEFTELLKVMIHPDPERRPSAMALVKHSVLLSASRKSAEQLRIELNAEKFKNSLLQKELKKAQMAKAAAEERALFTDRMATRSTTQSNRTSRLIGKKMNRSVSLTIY

Compound | IC50 (WEE1 kinase) [nM] | IC50 ([1]; Homo sapiens, 72 h) [nM] | IC50 [1] [nM]
CCCc1c(F)c2cnc(Nc3ccc(N4CCN(C)CC4)cc3)nc2n1-c1cccc(N=S(C)(C)=O)n1 [Example 1, ((6-(5-fluoro-2-((4-(4-methylpiperazin-1-yl)phenyl)amino)-6-propyl-7H-pyrrolo[2,3-d]pyrimidin-7-yl)pyridin-2-yl)imino)dimethyl-λ^6-sulfanone] | 0.57 | 43 | 
CCCc1cc2cnc(Nc3ccc(N4CCN(C)CC4)cc3)nc2n1-c1cccc(C(C)(C)O)n1 [Example 2, 2-(6-(2-((4-(4-methylpiperazin-1-yl)phenyl)amino)-6-propyl-7H-pyrrolo[2,3-d]pyrimidin-7-yl)pyridin-2-yl)propan-2-ol] | 0.88 |  | 
CCCc1cc2cnc(Nc3ccc(N4CCN(C)CC4)cc3)nc2n1-c1cccc(N=S(C)(C)=O)n1 [Example 4, ((6-(2-((4 (4-methylpiperazin-1-yl)phenyl)amino)-6-propyl-7H-pyrrolo[2,3-d]pyrimidin-7-yl)pyridin-2-yl)imino)dimethyl-λ^6-sulfanone] | 0.76 | 33 | 
CC(C)c1cc2cnc(Nc3ccc(N4CCN(C)CC4)cc3)nc2n1-c1cccc(N=S(C)(C)=O)n1 [Example 6, ((6-(6-isopropyl-2-((4 (4-methylpiperazin-1-yl)phenyl)amino)-7H-pyrrolo[2,3-d]pyrimidin-7-yl)pyridin-2-yl)imino)dimethyl-λ^6-sulfanone] | 0.96 |  | 
CCCc1cc2cnc(Nc3ccc(N4CCN(C)CC4)cc3)nc2n1-c1cccc(N=S(C)(C)=O)n1 [Example 7, ((6-(6-propyl-2-((4-(4-methylpiperazin-yl)phenyl)amino)-7H-pyrrolo[2,3-d]pyrimidin-7-yl)pyridin-2-yl)imino)dimethyl-λ^6-sulfanone] | 0.92 |  | 42
Cc1cc2cnc(Nc3ccc(N4CCN(C)CC4)cc3)nc2n1-c1cccc(N=S(C)(C)=O)n1 [Example 13, ((6-(6-methyl-2 ((4 (4-methylpiperazin-1-yl)phenyl)amino)-7H-pyrrolo[2,3-d]pyrimidin-7-yl)pyridin-2-yl)imino)dimethyl-λ^6-sulfanone] | 0.51 | 59 | 
CN(C)CCN(C)c1ccc(Nc2ncc3c(F)c(C4CC4)n(-c4cccc(N=S(C)(C)=O)n4)c3n2)cc1 [Example 14, ((6-(5-fluoro-2-((4-((2-(dimethylamino)ethyl)(methyl)amino)phenyl)amino)-6-cyclopropyl-7H-pyrrolo[2,3-d]pyrimidin-7-yl)pyridin-2-yl)imino)dimethyl-λ^6-sulfanone] | 1 |  | 
CN1CCN(c2ccc(Nc3ncc4c(F)c(C5CC5)n(-c5cccc(N=S(C)(C)=O)n5)c4n3)cc2)CC1CO (stereo not drawn) [Example 27, ((6-(6-cyclopropyl-5-fluoro-2 ((4-(3-hydroxymethyl-4-methylpiperazin-1-yl)phenyl)amino)-7H-pyrrolo[2,3-d]pyrimidin-7-yl)pyridin-2-yl)imino)dimethyl-λ^6-sulfanone] | 0.57 | 60 | 
CN1CCN(c2ccc(Nc3ncc4c(F)c(C5CC5)n(-c5cccc(N=S(C)(C)=O)n5)c4n3)cc2)C(CO)C1 (stereo not drawn) [Example 28] | 1.3 |  | 40
CN(C)CCc1ccc(Nc2ncc3c(F)c(C4CC4)n(-c4ccnc(N=S(C)(C)=O)n4)c3n2)cc1 [Example 32, ((6-(5-fluoro-2-((4-(2-(dimethylamino)ethyl)phenyl)amino)-6-cyclopropyl-7H-pyrrolo[2,3-d]pyrimidin-7-yl)pyrimidin-2-yl)imino)dimethyl-λ^6-sulfanone] | 0.69 |  | 31
CS(C)(=O)=Nc1cccc(-n2c(C3CC3)c(F)c3cnc(Nc4ccc(N5CCC(N6CCOCC6)CC5)cc4)nc32)n1 [Example 35, ((6-(5-fluoro-2-((4-(4-(morpholine 4-yl)piperidin-1-yl)phenyl)amino)-6-cyclopropyl-7H-pyrrolo[2,3-d]pyrimidin-7-yl)pyridin-2-yl)imino)dimethyl-λ^6-sulfanone] | 0.61 |  | 
CN1CCN(c2ccc(Nc3ncc4c(F)c(C5CC5)n(-c5cccc(N=S(C)(C)=O)n5)c4n3)cn2)CC1 [Example 37, ((6-(6-cyclopropyl-5-fluoro-2-((6-(4-methylpiperazin-1-yl)pyridin-3-yl)amino)-7H-pyrrolo[2,3-d]pyrimidin-7-yl)pyridin-2-yl)imino)dimethyl-λ^6-sulfanone] | 1.08 |  | 
COc1cc(Nc2ncc3cc(C4CC4)n(-c4cccc(N=S(C)(C)=O)n4)c3n2)ccc1N1CCN(C)CC1 [Example 38, ((6-(2-(((3-methoxy-4-(4-methylpiperazin-1-yl)phenyl))amino)-6-cyclopropyl-7H-pyrrolo[2,3-d]pyrimidin-7-yl)pyridin-2-yl)imino)dimethyl-λ^6-sulfanone] | 0.3 |  | 
CN1CCN(c2ccc(Nc3ncc4cc(C5CC5)n(-c5cccc(N=S(C)(C)=O)n5)c4n3)cc2F)CC1 [Example 40, ((6-(2-(((3-fluoro-4-(4-methylpiperazin-1-yl)phenyl))amino) 6-cyclopropyl-7H-pyrrolo[2,3-d]pyrimidin-7-yl)pyridin-2-yl)imino)dimethyl-λ^6-sulfanone] | 0.51 | 42 | 
CN1CCN(C2CCN(c3ccc(Nc4ncc5cc(C6CC6)n(-c6cccc(N=S(C)(C)=O)n6)c5n4)cc3Cl)CC2)CC1 [Example 54] | 1.04 |  | 
CN1CCN(c2ccc(Nc3ncc4cc(C5CC5)n(-c5cccc(C(C)(C)O)n5)c4n3)cc2)CC1 [Example 55, 2-(6-(2-((4-(4-methylpiperazin-1-yl)phenyl)amino)-6-cyclopropyl-7H-pyrrolo[2,3-d]pyrimidin-7-yl)pyridin-2-yl)propan-2-ol] | 0.98 |  | 
CS(C)(=O)=Nc1cccc(-n2c(C3CC3)c(F)c3cnc(Nc4ccc(C5C[C@H]6CC[C@@H](C5)N6)cc4)nc32)n1 (stereo partly drawn) [Example 63] | 0.85 |  | 
CS(C)(=O)=Nc1cccc(-n2c(C3CC3)c(F)c3cnc(Nc4ccc(N5C[C@H]6CC[C@@H](C5)N6)cc4)nc32)n1 [Example 80, ((6-(2-((4-((1R,5S)-3,8-diazabicyclo[3.2.1]octan-3-yl)phenyl)amino)-6-cyclopropyl-5-fluoro-7H-pyrrolo[2,3-d]pyrimidin-7-yl)pyridin-2-yl)imino)dimethyl-λ^6-sulfanone] | 1.18 |  | 
CCCc1cc2cnc(Nc3ccc(N4CCN(CCN(C)C)CC4)cc3)nc2n1-c1cccc(C(C)(C)O)n1 [Example 109, 2-(6-(6-propyl-2-((4-(4 (2-(dimethylamino)ethyl)piperazin-1-yl)phenyl)amino)-7H-pyrrolo[2,3-d]pyrimidin-7-yl)pyridin-2-yl)propan-2-ol] | 1.12 |  | 
CC(C)c1cc2cnc(Nc3ccc(N4CCN(C)CC4)cc3)nc2n1-c1cccc(C(C)(C)O)n1 [Example 141, 2-(6-(6-isopropyl-2-((4-(4-methylpiperazin-1-yl)phenyl)amino)-7H-pyrrolo[2,3-d]pyrimidin-7-yl)pyridin-2-yl)propan-2-ol] | 0.84 |  | 
Cc1cc2cnc(Nc3ccc(N4CCN(C)CC4)cc3)nc2n1-c1cccc(C(C)(C)O)n1 [Example 145, 2-(6-(6-methyl-2-((4 (4-methylpiperazin-1-yl)phenyl)amino)-7H-pyrrolo[2,3-d]pyrimidin-7-yl)pyridin-2-yl)propan-2-ol] | 0.6 |  | 
CCc1cc2cnc(Nc3ccc(N4CCN(C)CC4)cc3)nc2n1-c1cccc(C(C)(C)O)n1 [Example 159, 2-(6-(6-ethyl-2-((4-(4-methylpiperazin-1-yl)phenyl)amino)-7H-pyrrolo[2,3-d]pyrimidin-7-yl)pyridin-2-yl)propan-2-ol] | 0.59 |  | 
